In US20030191279A1, “Urea derivatives useful as anticancer agents” (priority 1999, published 2003):

Question: For `O=C(NCC(=O)N(Cc1ccccc1)[C@@H]1c2ccccc2CC[C@H]1Cc1ccccc1)Nc1cccc(C(=O)O)c1` (relative stereo) [Example 1, trans-3-(3-{[Benzyl-(2-benzyl-1,2,3,4-tetrahydro-naphthalen-1-yl)-carbamoyl]-methyl}-ureido)-benzoic acid], which melting point is on record?
Answer: > 250 °C

Question: For `O=C(NCC(=O)N(Cc1ccccc1)[C@@H]1c2ccccc2CC[C@H]1Cc1ccccc1)Nc1cccc(C(=O)Nc2nnn[nH]2)c1` (relative stereo) [Example 3, trans-3-(3-{[Benzyl-(2-benzyl-1,2,3,4-tetrahydro-naphthalen-1-yl)-carbamoyl]-methyl}-ureido)-N-(1H-tetrazol-5-yl)-benzamide], which melting point is on record?
Answer: 155 °C (dec.)

Question: Which melting point does the source give for `O=C(NCC(=O)N(Cc1ccccc1)[C@@H]1c2ccccc2CC[C@H]1Cc1ccccc1)c1cccc(-c2nnn[nH]2)c1` (relative stereo) [Example 4, trans-N-{[Benzyl-(2-benzyl-1,2,3,4-tetrahydro-naphthalen-1-yl)-carbamoyl]-methyl}-3-(1H-tetrazol-5-yl)-benzamide] here?
Answer: 119 °C (dec.)

Question: Which melting point does the source give for `COc1ccccc1CN(C(=O)CNC(=O)Nc1cccc(C(=O)O)c1)[C@@H]1c2ccccc2CC[C@H]1Cc1ccccc1` (relative stereo) [Example 11, trans-3-(3-{[(2-Benzyl-1,2,3,4-tetrahydro-naphthalen-1-yl)-(2-methoxy-benzyl)-carbamoyl]-methyl}-ureido)-benzoic acid] here?
Answer: 117 °C

Question: Which melting point does the source give for `O=C(NCC(=O)N(Cc1cccs1)[C@@H]1c2ccccc2CC[C@H]1Cc1ccccc1)Nc1cccc(C(=O)O)c1` (relative stereo) [Example 13, trans-3-(3-{[(2-Benzyl-1,2,3,4-tetrahydro-naphthalen-1-yl)-thiophen-2-ylmethyl-carbamoyl]-methyl}-ureido)-benzoic acid] here?
Answer: 196 to 198 °C

Question: With `O=C(NCC(=O)N(Cc1ccccc1)[C@@H]1CCCC[C@H]1Cc1ccccc1)Nc1cccc(C(=O)O)c1` (relative stereo) [Example 14, trans-3-(3-{[Benzyl-(2-benzyl-cyclohexyl)-carbamoyl]-methyl)-ureido)-benzoic Acid] as the molecule, how does the melting point read?
Answer: 160 to 162 °C

Question: Which melting point does the source give for `CCN(C(=O)CNC(=O)Nc1cccc(C(=O)O)c1)[C@@H]1c2ccccc2CC[C@H]1Cc1ccccc1` (relative stereo) [Example 16, trans-3-(3-{[(2-Benzyl-1,2,3,4-tetrahydro-naphthalen-1yl)-ethyl-carbamoyl]-methyl}-ureido)-benzoic acid] here?
Answer: 130 °C

Question: With `O=C(NCC(=O)N(Cc1nccs1)[C@@H]1c2ccccc2CC[C@H]1Cc1ccccc1)Nc1cccc(C(=O)O)c1` (relative stereo) [Example 17, trans-3-(3-{[(2-Benzyl-1,2,3,4-tetrahydro-naphthalen-1-yl)-thiazol-2-ylmethyl-carbamoyl]-methyl}-ureido)-benzoic acid] as the molecule, how does the melting point read?
Answer: 194 to 195 °C

Question: With `COc1ccccc1C[C@@H]1CCc2ccccc2[C@H]1N(Cc1ccccc1)C(=O)CNC(=O)Nc1cccc(C(=O)O)c1` (relative stereo) [Example 18, trans-3-[3-({Benzyl-[2-(2-methoxy-benzyl)-1,2,3,4-tetrahydro-naphthalen-1-yl]-carbamoyl}-methyl)-ureido]-benzoic acid] as the molecule, how does the melting point read?
Answer: 130 °C

Question: For `O=C(O)c1cc(C(=O)NCC(=O)N(Cc2ccccc2)[C@@H]2CCCC[C@H]2Cc2ccccc2)ncn1` (relative stereo) [Example 20, trans-6-({[Benzyl-(2-benzyl-cyclohexyl)-carbamoyl]-methyl}-carbamoyl)-pyrimidine-4-carboxylic acid], which melting point is on record?
Answer: 120 °C
